Literature values in EP0409903B1, “PROCESS FOR PREPARING POLYUNSATURATED FATTY ACIDS” (STAROIL LIMITED, priority 1988, dated 1989).

Conditions: ingestion of DHA in ester form and/or as the free acid; Hiroi at al., 1978

DHA and EPA levels in plasmatic phospholipids: significantly increases
SMILES: CC/C=C\C/C=C\C/C=C\C/C=C\C/C=C\C/C=C\CCC(=O)O [DHA, docosahexaenoic acid]
